Results on 3 molecules are retold here after publication PMC11314561, “Design and Synthesis of Novel Aminoindazole-pyrrolo[2,3-b]pyridine Inhibitors of IKKα That Selectively Perturb Cellular Non-Canonical NF-κB Signalling” (Molecules, 2024).

For assay [1], the system named is IKKα-mediated p100 phosphorylation (Ser866/870) in U2OS cells. In words: FCS-stimulated p100 phosphorylation (Ser866/870), Western blotting. In kind it is cell-based. Particulars: Homo sapiens, 1 h pre-treatment, FCS 10% 4 h. How it is done: (§1) To assess the translation of the biochemical potencies and selectivities described above to a cell-based setting, exemplars from the series were initially examined for inhibitory action against IKKs in the U2OS osteosarcoma cell line. This cell type was utilised to represent cells with a proliferative phenotype dependent on the constitutively activated IKKα-mediated non-canonical NF-κB pathway. Compounds 5r [SU1261]
(§2) U2OS cells were cultured in McCoy’s 5A Modified Medium, and PC-3M-Luc-C6 prostate cancer cells were cultured in Minimum Essential Medium (MEM), each containing 10% (v/v) Foetal Calf Serum (FCS), L-glutamine ([…]), and penicillin/streptomycin (250 units/mL; 100 μg/mL) and incubated in a humidified atmosphere at 37 °C with 5% (v/v) CO2. Cells were grown to near confluence and prior to experimentation rendered quiescent by serum deprivation for 24 h.
For examination of potential effects of compound on non-canonical NF-κB signalling, cells were exposed to vehicle (DMSO; 0.03–0.05% (v/v)) or increasing concentrations of compounds (0.01–30 µM) for 1 h prior to treatment with FCS (10% (v/v); for U2OS cells) or LTα1β2 (20 ng/mL; for PC-3M cells) for 4 h. The status of p-p100 (Ser 866/870) in whole-cell extracts prepared from 12-well plates was assessed by Western blotting, as described in McKenzie et al.. […] Thereafter, p52 and RelB status in crude nuclear extracts normalised for protein amounts were assessed by Western blotting.
Each figure/panel of Western blotting data represents one of at least three separate experiments. Western blots were scanned and imaged using Adobe Photoshop 5.0.2 software and polypeptide bands were semi-quantified by scanning densitometry using the Scion Image program. Data were normalised to fold expression/inhibition relative to ‘agonist plus vehicle’ treatment and expressed as mean ± s.e.m. […]
A general note: In western blotting, separated proteins are transferred to a membrane and probed.

For assay [2], the system named is IKKβ-mediated p65 phosphorylation (Ser536) in U2OS cells. In words: TNFα-stimulated p65 (Ser536) phosphorylation, Western blotting. It is filed as cell-based. The following applies: Homo sapiens, 1 h pre-treatment, TNFα 30 min. How it is done: as §1, §2
To examine the potential impact of compounds on canonical NF-κB signalling, cells were then exposed to vehicle (DMSO; 0.05% (v/v)) or increasing concentrations of compounds (0.01–30 µM) for 1 h prior to treatment with TNF⍺ (20 ng/mL) for 30 min. Whole-cell extracts were prepared, and the status of IκB⍺, phospho-p65 (Ser536), p65, and phospho-p105 ([…]) was also assessed by Western blotting.
Each figure/panel of Western blotting data represents one of at least three separate experiments. Western blots were scanned and imaged using Adobe Photoshop 5.0.2 software and polypeptide bands were semi-quantified by scanning densitometry using the Scion Image program. Data were normalised to fold expression/inhibition relative to ‘agonist plus vehicle’ treatment and expressed as mean ± s.e.m. IC50 values were established by curve fitting using the Hill equation.
Figure 11 Compound 5r [SU1261] inhibits FCS-stimulated p100 phosphorylation (Ser866/870) with no impact on TNFα-stimulated IkBα degradation and limited impact on phosphorylation of p65 (Ser536) in U2OS osteosarcoma cells. […] (0.3–30 µM) for 1 h prior to treatment with FCS (10% (v/v)) for 4 h, and phospho-p100 (Ser866/870) was assessed by Western blotting. […]

Where only a bound is given, the exact number is not on record here.

A word on the IC50: it is the midpoint of a concentration-inhibition curve. As to `Nc1n[nH]c2ccc(-c3ccnc4[nH]c(-c5ccnc(OCc6ccccc6)c5)cc34)cc12` [Compound 6g [SU1349]], the results for the IC50 in assay [1] and in assay [2] were 8750 nM and more than 30000 nM, respectively.

As to `Nc1n[nH]c2ccc(-c3ccnc4[nH]c(-c5cccc(OCc6ccccc6)c5)cc34)cc12` [Compound 5r [SU1261]], the IC50 was 2870 nM in assay [1] and 5640 nM in assay [2].

For the molecule `Nc1n[nH]c2ccc(-c3ccnc4[nH]c(-c5ccccc5)cc34)cc12` [Compound 4], the IC50 in assay [1] stood at 690 nM; in assay [2], 300 nM.
